The subject of data set [1] is NMDA-type glutamate receptors. Briefly: Calcium imaging of reactivity to NMDA in differentiated cells. It is filed as cell-based, human. To be noted: NT2-N cells, Fluo-8, 100 μM NMDA solution. The protocol: In order to confirm a statement of synaptic receptors in mature cells, a calcium influx via NMDA-type glutamate receptors was measured as follows.
A fluorescent calcium indicator Fluo-8 AM (AAT Bioquest) was dissolved in Mg-free HHBS (Hepes-buffered Hanks' balanced salt solution (1.26 mM CaCl2, 5.33 mM KCl, 0.44 mM KH2PO4, 4.17 mM NaHCO3, 137.93 mM NaCl, 0.34 mM Na2HPO4, 5.56 mM D-glucose, 20 mM HEPES, pH 7.4)) containing 0.1 μM glycine (4 μM, 2 μM, respectively). This solution (1 ml) was loaded into NT2-N cells under conditions of 37° C. and 5% CO2 (2 hours, 30 minutes, respectively), and fluo8 was loaded into the cells. Thereafter, an extracellular fluid was replaced with Mg-free HHBS containing 0.1 μM glycine, and it was used for the following measurement after being left in an incubator (37° C., 5% CO2) of a living cell time-lapse imaging device (BioStation IM-Q, Nikon) for 1 hour or more. For the NT2-N cells placed in the device, 5 to 10 fields of view to be analyzed were manually set, and for each field of view, fluorescence intensity was continuously recorded every 2 seconds for 5 minutes at an excitation wavelength of 480 nm/a fluorescence wavelength of 520 nm. Further, after a certain period of time elapsed from the start of recording, 100 μl of the 100 μM NMDA solution (Mg-free HHBS containing 0.1 μM glycine) prepared above was administered.

The test system of data set [2] is NT2 cells. Briefly: Differentiation induction from stem cells to nerve cells. In kind it is cell-based, human. The conditions noted are these: peretinoin 3 10 μM, ATRA 1 μM or 10 μM. Here is the method: NTERA-2 cl.D1 [NT2/D1] cells (ATCC CRL-1973) (hereinafter described as “NT2 cells”) derived from human pluripotent embryonic cancer were adhesion cultured in a maintenance culture medium (high glucose D-MEM (Sigma-Aldrich, D6429), 10% FBS, 100 U/ml penicillin/streptomycin) under conditions of 37° C. and 5% CO2 for 3 to 4 days on a 10 cm plastic dish until becoming confluent. The NT2 cells were exfoliated by Accutase (Innovative Cell Technologies, #AT104), passaged, and maintenance cultured for 50 days. The medium was changed three times a week. The maintenance cultured NT2 cells were dispersed in a petri dish for low-attached microorganisms (STAR SDish9015, RIKEN) at a concentration of 1.5×10^6 to 2.5×10^6/dish, and suspension cultured on a vibrator (100 rpm) under conditions of 37° C. and 5% CO2, and after one day, 1 μM or 10 μM ATRA was added to induce differentiation and form spheroids. After 14 days, the spheroids were recovered, seeded on a 10 cm dish coated with 5 μg/ml poly-D-lysine (PDL) (Sigma-Aldrich)/laminin (LAM) (iMatrix-511, Nippi), and adhesion cultured under conditions of 37° C. and 5% CO2. […]

For data set [3] the following is noted: Non Patent Literature 2 and 3; cited from earlier work.
The nature of data set [4]: PET pharmacokinetic test of 11C-labeled acyclic retinoids in rats. In kind it is in vivo, Sprague-Dawley rats. The conditions noted are these: rat, i.v. Here is the method:
(§1) The ^11C-labeled acyclic retinoid 4c and the ^11C-labeled peretinoin 3 synthesized by the methods described above were administered intravenously (i.v.) to Sprague-Dawley rats and cynomolgus monkeys as a PET probe, and PET images were photographed.

Data set [5] is described as follows: PET pharmacokinetic test of 11C-labeled acyclic retinoids in cynomolgus monkeys. It is filed as in vivo. To be noted: cynomolgus monkey, i.v. Here is the method: as §1
Data set [6] relates to cerebral cortex-striatal tissue sections. Briefly: Inhibitory effect on thrombin toxicity in cultured brain slices. In kind it is cell-based, Wistar/ST rat. The conditions noted are these: 10, 20, 30 μM; thrombin 100 U/ml, 72 hours. Here is the method:
(§2) Thrombin is known to induce cerebral cortex cell death and striatal tissue atrophy. Therefore, an experiment for evaluating thrombin toxicity was performed. In other words, a coronal section having a thickness of 300 μm was prepared from a brain of a Wistar/ST rat aged 2 to 3 days after birth, a fan-shaped tissue piece including a cerebral cortex and striatum was cut out, and then left to stand on a porous membrane (Millicell-CM, Millipore Corporation), and culture was maintained at a gas-liquid interface under a conditions of 34° C./5% CO2 (medium composition: 50% minimal essential medium, 25% Hanks' balanced salt solution, 25% horse serum). […] PI fluorescence images were acquired using a fluorescence microscope (Keyence) 72 hours after a start of thrombin treatment, and a degree of cell death was evaluated using fluorescence intensity of a cortical region as an index (sections of 100 μM NMDA treated for 72 hours were provided for each experiment, and their PI fluorescence intensity was standardized as 100%). Further, an area of a striatal region in each tissue piece was measured from bright field images of cultured tissue pieces acquired before and after the thrombin treatment, and a rate of tissue atrophy due to the thrombin treatment was quantified.

Data set [7] has as its system cerebral hemorrhage. Briefly: Effect on cerebral hemorrhage pathology (collagenase injection into striatum). It is filed as in vivo, ICR mouse. Here is the method: A male ICR mouse aged 8 to 10 weeks was placed in a brain stereotaxic apparatus under triple anesthesia, and bleeding was induced by injecting 0.035 U of collagenase type VII (Sigma) into a fixed coordinate (2.3 mm lateral to a median, 0.2 mm posterior to a bregma suture, 3.5 mm below a skull) in the striatum over 2.5 minutes using a 30 gauge needle. After that, the surface of the skull was reduced with dental cement, and breeding was continued. The peretinoin 3 (40 mg/kg) was suspended in water together with 0.5% carboxymethyl cellulose, and administered intragastrically using an oral sonde three times in total 3, 27, and 51 hours after the bleeding induction. Note that for comparison, 0.5% carboxymethyl cellulose without the peretinoin 3 was also administered intragastrically in a similar manner. A degree of motor dysfunction in the mouse was evaluated by performing two types of motor function tests (beam walking test, modified limb-placing test) 6, 24, 48, and 72 hours after the bleeding induction. Further, after completion of the motor function test 72 hours later, the mouse was perfused and fixed under anesthesia, and the brain was extracted to prepare a frozen coronary section having a thickness of 16 μm. The effects of the peretinoin 3 were evaluated by identifying microglia, astrocytes, and neurons in the brain tissue, respectively, through immunohistochemistry using antibodies against Iba1, GFAP, and NeuN, and quantifying the number of cells in a given area or an immune reaction positive area.

Data set [8] has as its system cerebral cortex-striatal tissue sections. Briefly: Evaluation using K252a (TrkB inhibitor) of the cytoprotective effect against thrombin. In kind it is cell-based, Wistar/ST rat. To be noted: thrombin + K252a (3 μM). Here is the method: as §2, with “quantified. […]” for “quantified.”
[9] abbreviates: radioactivity in brain for each time.
Setting [10] is: radioactivity in brain over time.
Setting [11] is: 40 mg/kg intragastrically, 6, 24, 48, 72 hours after bleeding.
[12] abbreviates: 40 mg/kg intragastrically, brain taken 72 hours after bleeding.

As to `CC1=C(/C=C/C(C)=C/C=C/C(C)=C/C(=O)O)C(C)(C)CCC1` [ATRA, All-trans-retinoic acid, reference compound], the “expression of NMDA-type glutamate receptors in induced nerve cells (calcium imaging, NMDA)” value in data set [1] is given as “expressed NMDA-type glutamate receptors”. The “number of cells expressing MAP2 without expressing nestin (differentiation induction into nerve cells)” value in data set [2] is “increased”.

As for `CC1(C)CCC(C)(C)c2cc(NC(=O)c3ccc([11C](=O)O)cc3)ccc21` [^11C-labeled Am80], the “intracerebral migration when used as a PET probe” value in data set [3] was “no intracerebral migration was observed”.

As to `Cc1cc2c(cc1-n1nnc3cc([11C](=O)O)ccc31)C(C)(C)CCC2(C)C` [^11C-labeled CBt-PMN], the “intracerebral migration when used as a PET probe” value in data set [3] is reported as “higher intracerebral migration than that of ^11C-labeled bexarotene”.

On to `CC(C)=CCC/C(C)=C/CC/C(C)=C/C=C/C([11CH3])=C/C(=O)O` [^11C-labeled peretinoin 3], for which the “migration into the brain (PET image)” value in data set [4] (PET probe) and in data set [5] (PET probe) was “migrated into a brain” throughout. For the same molecule, the “start of migration into the brain after administration” value in data set [4] (setting [9]) and in data set [5] (setting [9]) was “within several minutes” each time. Further, the “accumulation in the brain compared with the concentration when uniformly distributed throughout the body” value in data set [4] (setting [10]) worked out at 1.3 times; in data set [5] (setting [10]) it was 3.0 times.

Turning to `CC(C)=CCC/C(C)=C/CC/C(C)=C/C=C/C(C)=C/C(=O)O` [peretinoin 3, (2E,4E,6E,10E)-3,7,11,15-tetramethylhexadeca-2,4,6,10,14-pentaenoic acid], in data set [6], the “cerebral cortex cell death induced by thrombin (PI fluorescence)” value was “concentration-dependent and significantly suppressed”; the “striatal tissue atrophy induced by thrombin” value is “concentration-dependent and significantly suppressed”. Also, the “expression of NMDA-type glutamate receptors in induced nerve cells (calcium imaging, NMDA)” value in data set [1] is reported as “expressed NMDA-type glutamate receptors”. In addition, in data set [7] (40 mg/kg intragastrically 3, 27, 51 hours after bleeding induction), the “changes in body weight after cerebral hemorrhage” value is “suppressed weight loss”. Further, in data set [7] (setting [11]), the “beam-walking test: fall rate” value is recorded as “decrease”, the “beam-walking test: score” value is “increase”, the “beam-walking test: walking width” value is listed as “increase” and the “modified limb-placing test: deficit score” value is “decrease”. Further, the motor dysfunction result in data set [7] (40 mg/kg intragastrically, 24 to 72 hours after bleeding) is listed as “significantly alleviated”. Further, in data set [7] (setting [12]), the “accumulation of activated microglia around a hematoma (Iba1 immunohistochemistry)” value is given as “significantly suppressed” and the “shedding of nerve cells in the hematoma (NeuN immunohistochemistry)” value is “suppressed”. Also, the “number of cells expressing MAP2 without expressing nestin (differentiation induction into nerve cells)” value in data set [2] is recorded as “increased”. In data set [8], the “inhibitory effect on striatal atrophy in the presence of K252a” value is reported as “not blocked by K252a” and the “protective effect on cerebral cortex cells in the presence of K252a” value was “blocked by K252a”.

The values are drawn from US20240002313A1, “[11C]-LABELED ACYCLIC RETINOID, CENTRAL NERVOUS SYSTEM ACTIVATOR, AND PRODUCTION METHODS FOR SAME” (NATIONAL CENTER FOR GERIATRICS AND GERONTOLOGY, priority 2020, published 2024).
